Measured values: PubChem BioAssay AID2060603 (Molecular Pharmacology Branch, DTP, NCI, 2025)
Where “and” joins values, the source holds several entries; their conditions need not be identical. Equal values may be shown once.

Tested on: 422866-222-R5-J1-PDC spheroid viability
Assay: Anticancer human tumor 422866-222-R5-J1-PDC patient-derived pancreatic adenocarcinoma cell line growth inhibition [CLK]
Conditions: spheroids with HUVEC and MSC; for viability, T/C: stronger effect = lower value
Outline: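 Patient-derived tumor cells grown as complex spheroids with HUVEC endothelial cells and mesenchymal stem cells, treated with drug combinations. Concentrations descend in half-log steps from near clinical Cmax, or from 10 microM if Cmax unknown.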

[1] = curve of first compound, second compound 0.0316 µM
[2] = curve of first compound, second compound 0.1 µM
[3] = curve of first compound, second compound 0.316 µM
[4] = curve of first compound, second compound 1 µM
[5] = curve of first compound, second compound 3.16 µM
[6] = curve of first compound, second compound 10 µM
[7] = second compound 0.0316 µM, first compound 0.0316 µM
[8] = second compound 0.0316 µM, first compound 0.1 µM
[9] = second compound 0.0316 µM, first compound 0.316 µM
[10] = second compound 0.0316 µM, first compound 1 µM
[11] = second compound 0.1 µM, first compound 0.0316 µM
[12] = second compound 0.1 µM, first compound 0.1 µM
[13] = second compound 0.1 µM, first compound 0.316 µM
[14] = second compound 0.1 µM, first compound 1 µM
[15] = second compound 0.316 µM, first compound 0.0316 µM
[16] = second compound 0.316 µM, first compound 0.1 µM
[17] = second compound 0.316 µM, first compound 0.316 µM
[18] = second compound 0.316 µM, first compound 1 µM
[19] = second compound 1 µM, first compound 0.0316 µM
[20] = second compound 1 µM, first compound 0.1 µM
[21] = second compound 1 µM, first compound 0.316 µM
[22] = second compound 1 µM, first compound 1 µM
[23] = second compound 3.16 µM, first compound 0.0316 µM
[24] = second compound 3.16 µM, first compound 0.1 µM
[25] = second compound 3.16 µM, first compound 0.316 µM
[26] = second compound 3.16 µM, first compound 1 µM
[27] = second compound 10 µM, first compound 0.0316 µM
[28] = second compound 10 µM, first compound 0.1 µM
[29] = second compound 10 µM, first compound 0.316 µM
[30] = second compound 10 µM, first compound 1 µM
[31] = second compound 0.0316 µM, first compound 3.16 µM
[32] = second compound 0.0316 µM, first compound 10 µM
[33] = second compound 0.1 µM, first compound 3.16 µM
[34] = second compound 0.1 µM, first compound 10 µM
[35] = second compound 0.316 µM, first compound 3.16 µM
[36] = second compound 0.316 µM, first compound 10 µM
[37] = second compound 1 µM, first compound 3.16 µM
[38] = second compound 1 µM, first compound 10 µM
[39] = second compound 3.16 µM, first compound 3.16 µM
[40] = second compound 3.16 µM, first compound 10 µM
[41] = second compound 10 µM, first compound 3.16 µM
[42] = second compound 10 µM, first compound 10 µM
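Note: spheroids exposed to agents for seven days before readout.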

`CCN1CCN(Cc2ccc(Nc3ncc(F)c(-c4cc(F)c5nc(C)n(C(C)C)c5c4)n3)nc2)CC1` + CN1CCN(c2cc(C(=O)Nc3cc4cc(-c5cnn(C)c5)ccc4cn3)ccn2)CC1 was tested, and the IC50 [1] was > 1 µM, the IC50 [2] was > 1 µM and the IC50 [3] was > 1 µM. For the same compound, the IC50 [4] was < 0.00316 µM, the IC50 [5] was < 0.00316 µM and the IC50 [6] was < 0.00316 µM. It also gave a viability, T/C (second compound 0.0316 µM, first compound 0.00316 µM) of 110%, a viability, T/C (second compound 0.0316 µM, first compound 0.01 µM) of 101% and a viability, T/C [7] of 89%. The viability, T/C [8] was 88.8%, the viability, T/C [9] was 90.8% and the viability, T/C [10] was 110%. It also gave a viability, T/C (second compound 0.1 µM, first compound 0.00316 µM) of 122%, a viability, T/C (second compound 0.1 µM, first compound 0.01 µM) of 113% and a viability, T/C [11] of 93.8%. For the same compound, the viability, T/C [12] was 85.5%, the viability, T/C [13] was 72.5% and the viability, T/C [14] was 107%. The viability, T/C (second compound 0.316 µM, first compound 0.00316 µM) was 103%, the viability, T/C (second compound 0.316 µM, first compound 0.01 µM) was 84.9% and the viability, T/C [15] was 89%. The viability, T/C [16] was 72.3%, the viability, T/C [17] was 69.4% and the viability, T/C [18] was 84.5%. It also gave a viability, T/C (second compound 1 µM, first compound 0.00316 µM) of 34.6%, a viability, T/C (second compound 1 µM, first compound 0.01 µM) of 37.7% and a viability, T/C [19] of 34.4%. For the same compound, the viability, T/C [20] was 41.9%, the viability, T/C [21] was 53.5% and the viability, T/C [22] was 49.8%. For the same compound, the viability, T/C (second compound 3.16 µM, first compound 0.00316 µM) was 8.29%, the viability, T/C (second compound 3.16 µM, first compound 0.01 µM) was 8.47% and the viability, T/C [23] was 8.82%. The viability, T/C [24] was 7.58%, the viability, T/C [25] was 9.92% and the viability, T/C [26] was 13.5%. The viability, T/C (second compound 10 µM, first compound 0.00316 µM) was 1.95%, the viability, T/C (second compound 10 µM, first compound 0.01 µM) was 2.42% and the viability, T/C [27] was 1.51%. The viability, T/C [28] was 1.89%, the viability, T/C [29] was 2.56% and the viability, T/C [30] was 1.96%.

For `O=c1[nH]cc(F)c(=O)[nH]1` + CN1CCN(c2cc(C(=O)Nc3cc4cc(-c5cnn(C)c5)ccc4cn3)ccn2)CC1, the IC50 [1] was > 10 µM, the IC50 [2] was > 10 µM and the IC50 [3] was > 10 µM. For the same compound, the IC50 [4] was < 0.0316 µM, the IC50 [5] was < 0.0316 µM and the IC50 [6] was < 0.0316 µM. It also gave a viability, T/C [7] of 116%, a viability, T/C [8] of 129% and a viability, T/C [9] of 114%. For the same compound, the viability, T/C [10] was 95.6%, the viability, T/C [31] was 86.9% and the viability, T/C [32] was 77.1%. For the same compound, the viability, T/C [11] was 125%, the viability, T/C [12] was 104% and the viability, T/C [13] was 108%. For the same compound, the viability, T/C [14] was 90.5%, the viability, T/C [33] was 84.7% and the viability, T/C [34] was 91%. It also gave a viability, T/C [15] of 90.4%, a viability, T/C [16] of 100% and a viability, T/C [17] of 91.9%. It also gave a viability, T/C [18] of 96.1%, a viability, T/C [35] of 80.7% and a viability, T/C [36] of 80.6%. It also gave a viability, T/C [19] of 24.2%, a viability, T/C [20] of 19.1% and a viability, T/C [21] of 25.6%. The viability, T/C [22] was 17.9%, the viability, T/C [37] was 23.7% and the viability, T/C [38] was 22.5%. The viability, T/C [23] was 8.44%, the viability, T/C [24] was 10.5% and the viability, T/C [25] was 9.21%. The viability, T/C [26] was 8.88%, the viability, T/C [39] was 10.5% and the viability, T/C [40] was 9.67%. For the same compound, the viability, T/C [27] was 1.68%, the viability, T/C [28] was 1.08% and the viability, T/C [29] was 0.97%. It also gave a viability, T/C [30] of 1.08%, a viability, T/C [41] of 3.1% and a viability, T/C [42] of 1.13%.

In the case of `C=CC(=O)N1CCN(c2nc(=O)n(-c3c(C)ccnc3C(C)C)c3nc(-c4c(O)cccc4F)c(F)cc23)C(C)C1` (configuration not stated) + CN1CCN(c2cc(C(=O)Nc3cc4cc(-c5cnn(C)c5)ccc4cn3)ccn2)CC1, the IC50 [1] is reported as < 0.0316 µM, the IC50 [2] is reported as < 0.0316 µM and the IC50 [3] is reported as < 0.0316 µM. For the same compound, the IC50 [4] was < 0.0316 µM, the IC50 [5] was < 0.0316 µM and the IC50 [6] was < 0.0316 µM. The viability, T/C [7] was 44.6%, the viability, T/C [8] was 30.4% and the viability, T/C [9] was 40.1%. For the same compound, the viability, T/C [10] was 30.5%, the viability, T/C [31] was 29% and the viability, T/C [32] was 35.3%. It also gave a viability, T/C [11] of 46.9%, a viability, T/C [12] of 38.4% and a viability, T/C [13] of 36.6%. It also gave a viability, T/C [14] of 38.7%, a viability, T/C [33] of 35.1% and a viability, T/C [34] of 38.5%. For the same compound, the viability, T/C [15] was 42.7%, the viability, T/C [16] was 35.4% and the viability, T/C [17] was 29.9%. It also gave a viability, T/C [18] of 32.2%, a viability, T/C [35] of 33.9% and a viability, T/C [36] of 28.5%. It also gave a viability, T/C [19] of 20.9%, a viability, T/C [20] of 21.5% and a viability, T/C [21] of 21.2%. It also gave a viability, T/C [22] of 20.8%, a viability, T/C [37] of 17.6% and a viability, T/C [38] of 8.28%. It also gave a viability, T/C [23] of 4.94%, a viability, T/C [24] of 5.81% and a viability, T/C [25] of 5.39%. The viability, T/C [26] was 6.54%, the viability, T/C [39] was 6.25% and the viability, T/C [40] was 7.04%. For the same compound, the viability, T/C [27] was 0.98%, the viability, T/C [28] was 0.81% and the viability, T/C [29] was 0.76%. It also gave a viability, T/C [30] of 0.79%, a viability, T/C [41] of 0.84% and a viability, T/C [42] of 2.58%.

For `CC(=O)O[C@H]1C(=O)[C@@]2(C)[C@H]([C@H](OC(=O)c3ccccc3)[C@]3(O)C[C@H](OC(=O)[C@H](O)[C@@H](NC(=O)c4ccccc4)c4ccccc4)C(C)=C1C3(C)C)[C@]1(OC(C)=O)CO[C@@H]1C[C@@H]2O`, the viability, T/C (compound 0.0316 µM) was 68% and 69.8%, the viability, T/C (compound 0.1 µM) was 69.3% and 72.6% and the viability, T/C (compound 0.316 µM) was 63.8% and 66.3%. For the same compound, the viability, T/C (compound 1 µM) was 68.3% and 75.5%, the viability, T/C (compound 3.16 µM) was 72.2% and 76% and the viability, T/C (compound 10 µM) was 85.7% and 81.6%. The IC50 (curve of compound) was > 10 µM.

For `C=C(F)C(=O)N1CCN(c2nc(OCC3CCCN3C)nc3c2CCN(c2cccc4cccc(Cl)c24)C3)CC1CC#N` (configuration not stated), the viability, T/C (compound 0.0316 µM) was 31.6% and 42%, the viability, T/C (compound 0.1 µM) was 23.6% and 24.5% and the viability, T/C (compound 0.316 µM) was 19.6% and 21%. The viability, T/C (compound 1 µM) was 26.1% and 22.8%, the viability, T/C (compound 3.16 µM) was 11.2% and 15.2% and the viability, T/C (compound 10 µM) was 0.14%. The IC50 (curve of compound) was < 0.0316 µM.

For `O=C(c1cc(Cc2n[nH]c(=O)c3ccccc23)ccc1F)N1CCN(C(=O)C2CC2)CC1` + CN1CCN(c2cc(C(=O)Nc3cc4cc(-c5cnn(C)c5)ccc4cn3)ccn2)CC1, the IC50 [1] was > 10 µM, the IC50 [2] was > 10 µM and the IC50 [3] was > 10 µM. The IC50 [4] was < 0.0316 µM, the IC50 [5] was < 0.0316 µM and the IC50 [6] was < 0.0316 µM. It also gave a viability, T/C [7] of 120%, a viability, T/C [8] of 112% and a viability, T/C [9] of 112%. It also gave a viability, T/C [10] of 125%, a viability, T/C [31] of 102% and a viability, T/C [32] of 84.1%. It also gave a viability, T/C [11] of 122%, a viability, T/C [12] of 105% and a viability, T/C [13] of 109%. The viability, T/C [14] was 98.7%, the viability, T/C [33] was 95% and the viability, T/C [34] was 88.4%. The viability, T/C [15] was 96.8%, the viability, T/C [16] was 82.2% and the viability, T/C [17] was 87.2%. It also gave a viability, T/C [18] of 85.5%, a viability, T/C [35] of 83.7% and a viability, T/C [36] of 74.8%. The viability, T/C [19] was 26.2%, the viability, T/C [20] was 24.4% and the viability, T/C [21] was 23.4%. It also gave a viability, T/C [22] of 22.4%, a viability, T/C [37] of 28.3% and a viability, T/C [38] of 25.2%. For the same compound, the viability, T/C [23] was 10.1%, the viability, T/C [24] was 11.2% and the viability, T/C [25] was 9.98%. It also gave a viability, T/C [26] of 8.62%, a viability, T/C [39] of 9.42% and a viability, T/C [40] of 12.3%. It also gave a viability, T/C [27] of 1.86%, a viability, T/C [28] of 1.82% and a viability, T/C [29] of 2.14%. It also gave a viability, T/C [30] of 2.42%, a viability, T/C [41] of 3.13% and a viability, T/C [42] of 2.42%.
